In data set [1] the test system is HLA-DR. As to the kind of experiment: Flow cytometry detection of HLA-DR antigens of induced neural stem cells. The note with it: FIG. 7. Format: cell-based, human. The protocol: The HLA-DR antigens of neural stem cells induced by LY2157299 were detected by flow cytometry. HLA-DR is an MHC class II molecule whose expression is critical for the antigen-presenting function of cells and plays a key role in adoptive immune responses. The induced neural stem cells obtained in Example 2 were digested with EDTA, washed with DPBS, centrifuged to remove the supernatant, and 10^6 Cells were resuspended in 100 μL of diluted primary antibody (CD45 PerCP, Abeam, Cat. No. ab157309; HLA-DR FITC, CST, Cat. No. 54126), incubated on ice for 1 hour in the dark, centrifuged to remove supernatant, and cells were resuspended in 500 μL of antibody dilution buffer (CST) and analyzed on a flow cytometer. Samples incubated without primary antibody were used as controls. The results are shown in FIG. 7, FIG. 7a is a negative control, FIG. 7b is the HLA-DR detection result of the neural stem cells obtained by LY2157299 induction.

For data set [2], the system named is neural stem cells obtained by the LY inducing method. As to the kind of experiment: Directed differentiation of induced neural stem cells into neurons (immunofluorescence). It is filed as cell-based, human. The procedure:
The neural stem cells obtained by the LY inducing method in Example 2 were subjected to directed differentiation in NouvNeu001 basal medium. For neuronal differentiation, use 50 μg/mL polylysine (SIGMA ALDRICH, Cat. No.: P6407) to coat a 6-well culture plate, and place the plate in a 37° C. incubator and incubate for more than 3 hours until cells are seeded.
The neural stem cells obtained in example 2 were seeded at a density of 1×10^5 the ratio per flask was inoculated in T25 flasks, and 3 μM CHIR99021 (Selleck, Cat. No.: S2924), 10 μM SU5402 (Tocris, Cat. No.: 3300/1), 10 μM DAPT (Selleck, Cat. No.: S2215) were added to NouvNeu001 basal medium. Fresh medium was replaced every 3 days until day 21. The above cultures were incubated at 37° C. with 5% CO2.
The neural stem cells obtained in example 2 were seeded at a density of 1×10^5 the ratio per flask was inoculated in T25 flasks, and 1 μM Purmorphamine (Sellek, Cat. No.: S3042) and 1 ng/mL TGF-β3 (Novoprotein, Cat. No.: CJ44) were added to NouvNeu001 basal medium to culture neural stem cells. Fresh medium was replaced every 3 days until day 30. The above cultures were incubated at 37° C. with 5% CO2.
The neural stem cells obtained in example 2 were seeded at a density of 1×10^5 the ratio per flask was inoculated in T25 flasks, and 0.5 μM retinyl acetate (SIGMA ALDRICH, Cat. No.: R7782) was added to NouvNeu001 basal medium. Fresh medium was replaced every 3 days until day 24. The above cultures were incubated at 37° C. with 5% CO2.
After induction and differentiation, the cells were harvested and identified by immunofluorescence staining: cells were fixed with 4% paraformaldehyde at room temperature for 40 minutes, washed twice with DPBS buffer; then permeabilized with 0.1% Triton X-100 for 5 minutes, and buffered with DPBS The cells were then washed twice with DPBS buffer containing 10% horse serum and 0.1% Triton X-100 at 4° C. overnight; the cells were washed with DPBS buffer and then washed with 2% horse serum and 0.1% Triton X-100. […]

Data set [3] deals with Human pluripotent stem cells. As to the kind of experiment: Chemical induction of neural stem cells from pluripotent stem cells (neural rosette formation, cell morphology). It is filed as cell-based. An excerpt:
Human pluripotent stem cells include embryonic pluripotent stem cells, such as the H9 cell line and human induced pluripotent stem cells. Wherein, the human induced pluripotent stem cells used in the present invention are obtained from the reprogramming of CD34^+ cells, which refers to “reprogramming culture medium and reprogramming induced pluripotent stem cell culture method” (the method in the patent ZL201910050800.7).
Human pluripotent stem cells are used to coat T25 cell culture flasks with Matrigel ([…] Technologies), and then placed in a 37° C. incubator for more than one hour after plating. Follow 1×10^6 Cells were seeded in T25 flasks for expansion and passage.
For neural induction, use 50 μg/mL poly-lysine (SIGMA, Cat. No.: P6407) to coat a 6-well culture plate, and incubate at 37° C. for more than 3 hours after plating; then use 5 μg/mL Laminin (SIGMA ALDRICH, Cat. No.: 12020) for further coat, and then place in a 37° C. incubator to incubate for more than 3 hours. When pluripotent stem cells reached 70% coverage, they were digested with EDTA at 37° C. for 5 min, and DMEM was used to stop cell digestion. Cells are washed and centrifuged at 2×10^5 the proportions of each flask and are re-seeded in T25 plates. Neural induction is performed using the medium of the present invention in combination with the neural inducing compound, and the medium is changed every day until the neural stem cell rosette is formed. […] Therefore, the single-molecule inducing method provided by this method can induce pluripotent stem cells to form neural rosette structures more efficiently and uniformly.
(§1) From the above results, it is known that the differentiation is not complete under the low concentration condition, and many different types of cells can be seen. However, neural stem cells obtained in high concentration condition are easily differentiated and cell stress appears.

Data set [4] has as its system Sox2, Pax6, Nestin, CASP3. As to the kind of experiment: Q-PCR of marker genes during induction from pluripotent stem cells to neural stem cells. Format: cell-based, human. The note with it: different concentrations. The procedure:
Transcriptional changes of different marker genes during induction from pluripotent stem cells to neural stem cells were detected by using Q-PCR. The induced pluripotent stem cells used in this example are neural stem cells derived by LY inducing method and LSB inducing method, respectively. Neural stem cells were prepared as described previously using Rneasy Mini or Micro Kit (QIAGEN) for total RNA extraction, in which […] RNA was used to synthesize cDNA with superscript III First-Strand Synthesis System (Invitrogen).
All the above data were analyzed with the delta-Ct method. Each set of trials was tested using three sets of replicates, and variance statistics were performed.
as §1

The test system of data set [5] is human induced pluripotent stem cells. As to the kind of experiment: Brain organoid culture from induced pluripotent stem cells (formation, diameter). Format: cell-based. The note with it: 12.5 μM in basal medium to day 10, culture to day 120. The protocol: Organoid culture was performed with human induced pluripotent stem cells. Organoid inducing medium was formulated as follows: NouvNeu basal medium supplemented with 12.5 μM LY2157299. Induced pluripotent stem cells were digested to single cells by Accutase, seeded in U-bottom-ultra-low attachment 96-well plates at a ratio of 9000 cells/[…] of brain organoid inducing medium per well. 10 μM ROCK inhibitor Y-27632 (Selleck, S1049) was added, and the cells were placed in a 37° C., 5% carbon dioxide cell incubator for 24 hours (Panasonic, model: MCO-18AC). Y-27632-free fresh organoid inducing medium was changed the following day until day 10. Day 10 the organoids were transferred to ultra-low-attachment 6-well plates and the medium was changed to NouvNeu001 basal medium supplemented with 2% B27 cell culture additive. The culture was conducted at 37° C. in a 5% CO2 cell culture incubator on a horizontal rotator at 80 rpm until day 120.
The control experiment was carried out according to the published method (Clair B et. al, Nat Methods. 2019, November; 16 (11): 1169-1175). N2B27 was used as the basic medium for organ like culture. […]
Organoids were photographed by Leica Dmi8. The brain organoids were photographed and their diameters were measured. […]

In data set [6] the test system is MHC associated genes CD4, HLA-A, HLA-C, hla-f, and HLA-DPB1. As to the kind of experiment: Q-PCR detection of MHC genes of induced neural stem cells. Format: cell-based. The note with it: compared with human pluripotent stem cells; FIG. 6. The text has this:
The major histocompatibility complex (MHC) genes of neural stem cells induced by LY2157299 was detected by Q-PCR method, and pluripotent stem cells (iPS) were used as control.

In data set [7] the test system is Human pluripotent stem cells. As to the kind of experiment: Cyquant assay of cell viability during neural induction. It is filed as cell-based. The note with it: samples on days 1, 5, 10, 15 and 20; control LSB method; FIG. 1c. The protocol:
(§2) The Cyquant assay was used to perform the quantitative detection of cell viability, thus investigating the effect of LY2157299 on the physiological state of the cells during long-term culture of the cells; Among them, the LSB method was used as the control group. 96-well light-tight cell culture plates were coated; after the coating was complete, cells were seeded separately at 5×10^4 cell number per well and three sets of parallel replicates were set (the average of three sets was calculated as data) to repeat the procedure of example 2.1. Wherein, the culture procedures described previously were incubated at 37° C. with 5% CO2. Samples were taken on days 1, 5, 10, 15 and 20 for cell viability assay using CyQuant Kit (Invitrogen, cat. No: X12223). The aforementioned assay was operated according to the instructions with a Spectramax i3 Multi-Mode Microplate Reader (VWR, model number: ID3-STD) for data reading.

Data set [8] is described as follows: Freezing point osmometer, osmolality of the culture system. It is filed as physicochemical. The note with it: sodium chloride concentration 1 μg/mL; FIG. 2a. An excerpt:
A fully automated freezing point osmometer (FM-8P, Shanghai Yida Instruments Co., Ltd.) was used to detect the effects of different concentrations of sodium chloride on the osmolality of the culture system, and the specific operations were enrolled in the product instructions (FM-8P, Shanghai Yida Instruments Co., Ltd.). The test results are detailed in FIG. 2a. The results illustrate a linear increase with the concentration of sodium chloride and the osmotic pressure of the culture system. However, when the concentration reached 1 μg/mL, the osmolality of the culture system already exceeded the cell culture limit of 320 mOsm/kg.

Data set [9] concerns Human pluripotent stem cells. As to the kind of experiment: CyQuant assay of medium components (cell viability in long-term culture). It is filed as cell-based. The note with it: different concentrations, FIG. 2b-2c. The procedure:
as §2

For the compound `Cc1cccc(-c2nn3c(c2-c2ccnc4ccc(C(N)=O)cc24)CCC3)n1` [LY2157299, 4-(2-(6-methylpyridin-2-yl)-5,6-dihydro-4h-pyrrolo[1,2-b]pyrazol-3-yl) quinoline-6-carboxamide], the “HLA-DR antigen expression of induced neural stem cells (flow cytometry)” value in data set [1] is recorded as “do not express HLA-DR”. Also, in data set [2] (CHIR99021, SU5402, DAPT until day 21, FIG. 5a-5c), the “nociceptor neuron differentiation of induced neural stem cells, marker expression” value was “express the nociceptor neuron specific marker SCNI11A”. Moreover, in data set [2] (Purmorphamine, TGF-β3 until day 30, FIG. 5d-5f), the “dopaminergic neuron differentiation of induced neural stem cells, marker expression” value is “can express mature dopaminergic neuron specific marker Pitx3”. Besides, the “photoreceptor neuron differentiation of induced neural stem cells, marker expression” value in data set [2] (retinyl acetate until day 24, FIG. 5g-5i) is recorded as “can express the photoreceptor neuron specific marker OPSIN”. Besides, the “cell population obtained by chemical induction” value in data set [3] (12.5 μM in NouvNeu001 basal medium, FIG. 4d) is reported as “resulted in a uniform cell population”; in data set [3] (25 μM in NouvNeu001 basal medium, FIG. 4e), “a mixed population of neural cells was obtained”; in data set [3] (in NouvNeu001 basal medium, FIG. 4c), “a mixed population of cells including neural cells was obtained”. The “cell stress during chemical induction” value in [3] (25 μM, FIG. 4e) was “cells showed signs of stress with intracellular vacuoles”. The “regulation of Pax6 expression by concentration (Q-PCR)” value in [4] (FIG. 4f) was “positively correlated with Pax6 expression”. Besides, the “regulation of apoptosis gene CASP3 by concentration (Q-PCR)” value in data set [4] (FIG. 4g) is “positively correlated with apoptosis”. The “generation of cerebral organoids” value in [5] was “can induce the generation of cerebral organoids”. The “expression of MHC associated genes in induced neural stem cells (Q-PCR)” value in data set [6] is “expressed at extremely low levels”. For the same compound, the “number of neural cells (cell viability, CyQuant)” value in [7] was “induced more number of neural cells compared with LSB method”.
Consider `[Cl-].[Na+]` [sodium chloride], for which, in [8], the “osmolality of the culture system” value was greater than 320 mOsm/kg.
On to “recombinant insulin: component of the basal medium, screened at different concentrations”, for which the “effect of concentration on cell proliferation (CyQuant)” value in data set [9] was “positively correlated with the rate of cell proliferation”.
